Laboratory results: patent US20050220779A1, “Integrin linked kinase modulation of macrophage activation” (priority 2001, published 2005)

Tests used:
[1] = system: RAW 264.7 cells; assay: Cell survival by crystal violet staining, RAW 264.7 cells; format: cell-based
Experimental: (§1) Treatment of primary macrophages and RAW 264.7 cells. Primary macrophages (1.5×10^5 cells/well) and RAW 264.7 (4×10^4 cells/well) cells were grown in 96-well plates (nitrite assay), or 6-well plates (2×10^6 cells/well) for measurement of iNOS and COX-2 expression. Following 3 h incubation, at 37 C, 5% CO2 (macrophages were allowed to attach) cells were stimulated with LPS (0.5 μg/ml) and IFN-γ (100 U/ml) in the absence or presence of various concentrations of ILK inhibitors (all treatments were replicated six times). Cells were incubated for an additional 24 h, and cell free culture supernatants from each well were collected for NO and cytokine determination. The remaining cells were stained with crystal violet to determine effect of the inhibitors on cell survival.
Effect of ILK Inhibitors on suppression of NO production and cell survival. Twenty-four hours following treatment with the ILK inhibitors, aliquots from the cell-free supernatants were assayed for NO and IL-6 release. Surviving cells were stained and fixed (crystal violet 0.05% in 20% ethanol), to determine if the decrease in NO production was related to a decrease in cell number due to toxicity of the compounds. […] Only those compounds that induced strong inhibition of NO release, and caused no significant cell death were selected for further evaluation.

[2] = system: BALB/c cells (primary peritoneal macrophages); assay: LPS-IFN-γ-induced macrophage NO production (Griess nitrite assay), BALB/c cells; format: cell-based, mouse
Experimental: (§2) Isolation of primary mouse macrophages. Peritoneal exudate macrophages were isolated by peritoneal lavage with ice-cold sterile physiological saline 24 h after intraperitoneal injection of BALB/c and CB57BL/6 mice with 0.3 ml of sterile Zymosan A (1 mg/0.5 ml 0.9% saline). Cells were washed, resuspended in RPMI 1640 supplemented with 2 mM L-glutamine, 100 units/ml penicillin, 100 μg/ml streptomycin, and 5% FBS.
as §1
(§3) NO production. Following stimulation, the production of NO was determined by assaying culture supernatants for NO2^−, a stable reaction product of NO with molecular oxygen. Briefly, 100 μl of culture supernatant was reacted with an equal volume of Griess reagent at room temperature for 10 min. The absorbance at 550 nm was determined. All measurements were performed six times. The concentration of NO2^−was calculated by comparison with a standard curve prepared using NaNO2.
(§4) Effects of ILK inhibitors on LPS-IFN-γ-induced NO release. […] […] To compare the effect of the compounds across three different cell types, the NO release for each cell type was expressed relative to DMSO treated cells. […] For example, macrophages from Balb/c and C57BL/6 mice responded similarly to the treatment with the compounds.

[3] = system: BALB/c cells (primary peritoneal macrophages); assay: Cell survival by crystal violet staining, BALB/c cells; format: cell-based; conditions: BALB/c cells
Experimental: (§5) Treatment of primary macrophages and RAW 264.7 cells. […] Following 3 h incubation, at 37 C, 5% CO2 (macrophages were allowed to attach) cells were stimulated with LPS (0.5 μg/ml) and IFN-γ (100 U/ml) in the absence or presence of various concentrations of ILK inhibitors (all treatments were replicated six times). Cells were incubated for an additional 24 h, and cell free culture supernatants from each well were collected for NO and cytokine determination. The remaining cells were stained with crystal violet to determine effect of the inhibitors on cell survival.
(§6) Effect of ILK Inhibitors on suppression of NO production and cell survival. Twenty-four hours following treatment with the ILK inhibitors, aliquots from the cell-free supernatants were assayed for NO and IL-6 release. Surviving cells were stained and fixed (crystal violet 0.05% in 20% ethanol), to determine if the decrease in NO production was related to a decrease in cell number due to toxicity of the compounds.

[4] = system: C57BL/6 cells (primary peritoneal macrophages); assay: Cell survival by crystal violet staining, C57BL/6 cells; format: cell-based
Experimental: as §5, §6

[5] = system: RAW 264.7 cells; assay: LPS-IFN-γ-induced macrophage NO production (Griess nitrite assay), RAW 264.7 cells; format: cell-based, murine
Experimental: RAW 264.7 cells. RAW 264.7 cells, a murine macrophage cell line, were obtained from American Type Culture Collection (ATCC, Manassas, Va.) and cultured in DMEM supplemented with 10% FCS. Each treatment was performed in triplicate wells. RAW 264.7 cells (Balb/c background) produce a significant amount of nitric oxide upon treatment with IFN-γ alone, but require LPS for full activation. This property makes their behavior more like that of normal macrophages obtained from commonly used strains of mice.
as §5, §3
Effects of ILK inhibitors on LPS-IFN-γ-induced NO release. […] […] To compare the effect of the compounds across three different cell types, the NO release for each cell type was expressed relative to DMSO treated cells.

[6] = system: C57BL/6 cells (primary peritoneal macrophages); assay: LPS-IFN-γ-induced macrophage NO production (Griess nitrite assay), C57BL/6 cells; format: cell-based, mouse
Experimental: as §2, §1, §3, §4

[7] = system: HUVEC cells; assay: In vitro Matrigel morphogenesis (tube formation) assay of VEGF stimulated HUVEC cells; format: cell-based, human; conditions: 100 mM (so in the source)
Experimental: In Vitro Angiogenesis. […] After 5 hours of incubation in a 5% CO2-humidified atmosphere at 37 °C, the three-dimensional organization of the cells was examined using an inverted photomicroscope. The cells were fixed with Crystal Violet (0.05% in 20% ethanol) and digitally photographed.
To determine the anti-angiogenic properties of ILK inhibitors, an in vitro Matrigel morphogenesis assay was established. This assay evaluates the ability of endothelial cells to differentiate into capillary-like structures, a crucial step during neovascularization. HUVEC cells when stimulated with VEGF and seeded onto Matrigel rapidly attach to the matrix and begin to migrate and interact with the extracellular matrix proteins present in the Matrigel. […] These capillary-like structures can be assessed by histology (FIG. 2). Samples are cut on a cross section and subsequent viewed using an electron microscope. Typically, cylindrical formations with a lumen are observed. A distinct difference in the morphology of tube formation on Matrigel, compared to other in vitro angiogenesis assays is a reduction in the proliferation of endothelial cells. […] Using this model system, both inhibitors and stimulators of angiogenesis can be assessed prior to in vivo testing.
The assay was established and reproducibility confirmed. SU5416, shown to inhibit angiogenesis in other assays, was also evaluated. […]

[8] = system: IL-6 release in macrophages; assay: LPS-IFN-γ-induced IL-6 release in macrophages (ELISA); format: cell-based, murine; conditions: 50 μM, added at the onset of the culture
Experimental: as §1
Enzyme immunoassays for mouse IL-6. IL-6 levels were determined with PharMingen's OptElA ELISA set developed using an anti-mouse IL-6 Ab pair and mouse rIL-6 standard (PharMingen). Maxisorp F16 multiwell strips (Nunc, Roskilde, Denmark) were coated with anti-mouse IL-6 capture Ab (at recommended concentration) in 0.1 M NaHCO3, pH 9.5, 100 μl/well, overnight at 4° C. Plates were washed three times with 0.05% Tween 20 in PBS (PBST) and blocked for 1 h at room temperature with 200 μl/well of 10% FCS in PBS (blocking and dilution buffer). […] Absorbance was read at 450 nm with an EL 312e microplate reader. […]

SMILES	Survival (%) ([1]; 0.5 mM)	Survival (%) ([1]; 1 mM)	NO inhibition (%) ([2]; 0.5 mM)	NO release (%) ([2]; 0.5 mM)	NO inhibition (%) ([2]; 1 mM)	NO release (%) ([2]; 1 mM)	Survival (%) ([3]; 0.5 mM)	Survival (%) ([3]; 1 mM)	Survival (%) ([4]; 0.5 mM)	Survival (%) ([4]; 1 mM)	NO inhibition (%) ([5]; 0.5 mM)	NO release (%) ([5]; 0.5 mM)	NO inhibition (%) ([5]; 1 mM)	NO release (%) ([5]; 1 mM)	NO inhibition (%) ([6]; 0.5 mM)	NO release (%) ([6]; 0.5 mM)	NO inhibition (%) ([6]; 1 mM)	NO release (%) ([6]; 1 mM)	Effect on endothelial cell morphogenesis (in words) [7]	Effect on IL-6 release (in words) [8]
C[C@@H]1C[C@H]2[C@@H]3CCC4=CC(=O)C=C[C@]4(C)[C@@]3(F)[C@@H](O)C[C@]2(C)[C@@]1(O)C(=O)CO [Dex, Dexamethasone]	98	80	28	60.6	36	46.7	84	73	87	68	−6	103.6	−9	87.1	32	67.9	53	46.6		
CNC(=N)NCCC[C@H](N)C(=O)O [L-NMMA, N^G-Monomethyl-L-arginine]	92	86	92	7.9	97	3.1	97	94	97	99	52	44.2	63	31.7	92	8.3	99	1.1		
Cc1cc(C)c(/C=C2\C(=O)Nc3ccccc32)[nH]1 [SU5146, reference compound]																			did not affect endothelial cell morphogenesis	
C[C@]12CCC(=O)C=C1CC[C@@H]1[C@@H]2[C@@H](O)C[C@@]2(C)[C@H]1CC[C@]2(O)C(=O)CO [hydrocortisone, Hydrocortisone, reference compound]																				moderately suppressed IL-6 release
